“Also recorded” adds a separate entry of the source. Where a SMILES comes first, the peptide text is derived from it. Bridges are numbered along the chain shown (N, C = ends).
How the values were obtained:
Trpv1−/− mice = test: Colonic temperature in TRPV1 knockout mice; assay type: in vivo, mouse; details: Trpv1−/− mice n=3, intraperitoneal, 10 μmol kg^−1
Method: (§1) In vivo effects of RhTx on WT mice or Trpv1^−/− mice were examined according to protocols described previously. For the paw-licking assay, pain was induced in mice by intraplantar injection of 0.1% formalin, capsaicin (1 μmol per paw) or RhTx (1 μmol per paw). Each of the testing materials was dissolved in 100 μl saline. Control mice received the same volume of saline. Injected mice were placed individually into open polyvinyl cages (20 × 40 × 15 cm). Time spent licking the injected paw was recorded by a digital video camera during the following 40 min. For recording colonic temperature from WT or Trpv1^−/− mice, mice equipped with a copper-constantan thermocouple were individually placed in open polyvinyl cages. A data logger was connected to the thermocouple. Mice were injected intraperitoneally with 100 μl saline containing capsaicin or RhTx. The dose of capsaicin or RhTx was 10 μmol kg^−1 for these experiments. Mice in the control group received the same volume of saline.

mTRPV1 [1] = target: T1, mTRPV1 (Mus musculus, UniProt Q704Y3); test: Inside-out patch, toxin applied from the intracellular side; assay type: cell-based; details: inside-out patch containing mTRPV1, holding 0 mV, testing +80 mV
T1 construct: expressed in transfected cells; host or cells: HEK-293T
T1 sequence (Q704Y3 whole entry): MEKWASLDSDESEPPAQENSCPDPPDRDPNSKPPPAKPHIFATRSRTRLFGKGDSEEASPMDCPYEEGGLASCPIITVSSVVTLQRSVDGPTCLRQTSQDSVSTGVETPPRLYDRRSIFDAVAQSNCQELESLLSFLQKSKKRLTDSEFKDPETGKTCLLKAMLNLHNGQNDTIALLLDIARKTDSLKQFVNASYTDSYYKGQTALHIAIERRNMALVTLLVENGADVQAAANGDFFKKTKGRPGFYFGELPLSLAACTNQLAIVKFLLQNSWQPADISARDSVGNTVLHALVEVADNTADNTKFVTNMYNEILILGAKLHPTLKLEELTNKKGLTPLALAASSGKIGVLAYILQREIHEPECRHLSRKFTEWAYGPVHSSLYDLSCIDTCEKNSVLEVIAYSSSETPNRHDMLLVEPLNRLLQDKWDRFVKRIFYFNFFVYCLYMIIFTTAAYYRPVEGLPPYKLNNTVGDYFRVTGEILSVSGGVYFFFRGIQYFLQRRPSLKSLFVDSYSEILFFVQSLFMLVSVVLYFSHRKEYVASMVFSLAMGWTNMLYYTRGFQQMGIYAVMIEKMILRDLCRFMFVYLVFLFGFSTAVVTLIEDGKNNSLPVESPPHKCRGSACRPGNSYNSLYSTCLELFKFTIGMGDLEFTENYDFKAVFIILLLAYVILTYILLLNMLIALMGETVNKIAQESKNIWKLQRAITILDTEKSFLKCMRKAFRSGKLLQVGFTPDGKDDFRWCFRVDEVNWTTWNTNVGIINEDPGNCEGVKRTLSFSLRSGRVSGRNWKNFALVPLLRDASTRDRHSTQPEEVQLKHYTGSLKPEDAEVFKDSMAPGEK
Method: (§2) As described in details in a previous report, macroscopic currents (in whole-cell, inside-out or outside-out configuration) as well as single-channel currents were recorded using a HEKA EPC10 amplifier with the PatchMaster software (HEKA). Both pipette solution and bath solution contained 130 mM NaCl, 3 mM HEPES and 0.2 mM EDTA (pH 7.2). All recordings were performed at room temperature unless otherwise stated. A holding potential of 0 mV was used from which a testing pulse to +80 mV was applied. Statistical difference was determined using the Student’s t-test, and indicated by ** when reaching the significance level P<0.001.

[2] = system: dorsal root ganglion (DRG) neurons; test: Calcium imaging of DRG neurons (Fluo-4); assay type: cell-based, mouse; details: RhTx 10 μM, capsaicin 10 μM
Method: (§3) Mouse DRG neurons were acutely dissociated and maintained in a short-term primary culture according to procedures as previous descripted. DRG neurons or HEK-293T cells were loaded with Fluo-4 AM in 2 mM Ca^2+ Ringer’s solution (140 mM NaCl, 5 mM KCl, 2 mM MgCl2, 10 mM glucose, 2 mM CaCl2 and 10 mM HEPES, pH 7.4). Fluorescence images of DRG neurons and HEK-293T cells were acquired with an Olympus IX81 microscope with Hamamatsu C4742 charge-coupled device camera controlled by the MetaFluor Software (Molecular Devices). Fluo-4 was excited by a mercury vapour light source with a 500/20-nm excitation filter, while fluorescence emission was detected with a 535/30-nm emission filter. Fluorescence images were required with automated routines written in MetaMorph software (Molecular Devices) and analysed with Igor Pro (Wavemetrics).

TRPV1 = test: Cooling of RhTx- or capsaicin-induced channel activation; assay type: cell-based; details: RhTx at 1 μM
Method: as §2

[3] = system: mTRPV1 point mutants at D602, Y632, T634 and L461; test: Calcium imaging of mTRPV1 point mutants; assay type: cell-based, mouse; details: glycine or alanine mutation; 10 μM RhTx, 10 μM capsaicin
Excerpt: TRPV1 and TRPV3 chimeras used in this study were generated by the overlapping extension method[54] and confirmed by DNA sequencing, as described previously. Briefly, to generate V1/3S, the primer pairs (5′-[…]-3′and 5′-[…]-3′) were used. To generate other TRPV1/TRPV3 chimeras, the enzyme cutting sites by MluI were made by the primer pair (5′-[…]-3′ and 5′-[…]-3′) for TRPV1 and the primer pair (5′-[…]-3′ and 5′-[…]-3′) for TRPV3. The enzyme cutting sites by PvuI were made by the primer pair (5′-[…]-3′ and 5′-[…]-3′) for TRPV1 and the primer pair (5′-[…]-3′ and 5′-[…]-3′) for TRPV3. The enzyme cutting sites by BsiWI were made by the primer pair (5′-[…]-3′ and 5′-[…]-3′) for TRPV1 and the primer pair (5′-[…]-3′ and 5′-[…]-3′) for TRPV3. […]
as §3, with “DRG neurons or HEK-293T cells were loaded with Fluo-4 AM in 2 mM Ca^2+ Ringer’s solution (140 mM NaCl, 5 mM KCl, 2 mM MgCl2, 10 mM glucose, 2 mM CaCl2 and 10 mM HEPES, pH 7.4).” left out

mTRPV3 = test: Selectivity recording on mTRPV3; assay type: cell-based, mouse; details: RhTx at 10 μM
Method: as §2
(§4) Supplementary Figure 3. […]
(§5) mTRPV2 (c), mTRPV3 (d) and mTRPV4 (e). (f) Treatment with 10 μM RhTx (red traces)

WT mice [4] = test: Paw-licking assay, intraplantar injection; assay type: in vivo, mouse; details: 1 μmol per paw in 100 μl saline, 40 min observation
Method: as §1
Supplementary Figure 1. Centipede crude venom -induced paw licking. Pain behavior was induced in mice b y intraplan tar injection of centipede crude venom. After crude venom injection, mice were immediately placed individually into open polyvinyl cages (20 × 40 × 15 cm). The time spent licking the injected paw was recorded by digital video camera during 0- 10 minutes […]

hTRPV1 = test: Whole-cell recording of hTRPV1; assay type: cell-based, human
Method: as §2
Supplementary Figure 3. […] (a) A representative whole-cell recording of hTRPV1 treated with RhTx or capsaicin. (b) Comparison of the dose-response relationships between hTRPV1 and mTRPV1. […]
mTRPV2 (c), mTRPV3 (d) and mTRPV4 (e). (f) Treatment with 10 μM RhTx (red traces) […]
(1 picture or pasted object on this page, not shown here)

[5] = system: voltage-gated Ca channels; test: Selectivity recording on voltage-gated Ca channels; assay type: cell-based; details: 10 μM RhTx compared to toxin-free treatment
Method: as §4, §5

mTRPV1 [6] = target: T1, mTRPV1; test: Whole-cell patch-clamp of mTRPV1 expressed in HEK293 cells; assay type: cell-based
Excerpt: TRPV1 and TRPV3 chimeras used in this study were generated by the overlapping extension method[54] and confirmed by DNA sequencing, as described previously. Briefly, to generate V1/3S, the primer pairs (5′-[…]-3′and 5′-[…]-3′) were used. To generate other TRPV1/TRPV3 chimeras, the enzyme cutting sites by MluI were made by the primer pair (5′-[…]-3′ and 5′-[…]-3′) for TRPV1 and the primer pair (5′-[…]-3′ and 5′-[…]-3′) for TRPV3. The enzyme cutting sites by PvuI were made by the primer pair (5′-[…]-3′ and 5′-[…]-3′) for TRPV1 and the primer pair (5′-[…]-3′ and 5′-[…]-3′) for TRPV3. The enzyme cutting sites by BsiWI were made by the primer pair (5′-[…]-3′ and 5′-[…]-3′) for TRPV1 and the primer pair (5′-[…]-3′ and 5′-[…]-3′) for TRPV3. V1/3M were generated by enzyme cut and paste between MluI and PvuI sites, while V1/3L were generated by enzyme cut and paste between MluI and BsiWI sites. V1_S1S2_1, V1_S1S2_3 and V1_S1S2_3 were generated as previously reported. All mTRPV1 point mutations were constructed using the QuickChange II XL site-directed mutagenesis kit following the manufacturer’s instruction. These point mutations were sequenced to confirm that appropriate constructs were made. HEK-293T cells were cultured and transiently transfected using Lipofectamine 2,000 (Invitrogen) as previously described.
as §2

voltage-gated K channels = test: Selectivity recording on voltage-gated K channels; assay type: cell-based; details: 10 μM RhTx compared to toxin-free treatment
Method: as §4, §5

WT mice [7] = test: Colonic temperature after intraperitoneal injection; assay type: in vivo, mouse; details: WT mice n=6, intraperitoneal, 10 μmol kg^−1
Method: as §1

Question: For `CC[C@H](C)[C@H](NC(=O)[C@@H]1CSSC[C@@H]2NC(=O)[C@H]([C@@H](C)O)NC(=O)[C@H](C(C)C)NC(=O)CNC(=O)[C@H](CC(N)=O)NC(=O)[C@@H](NC(=O)[C@@H]3CCCN3C(=O)[C@H](CC(N)=O)NC(=O)[C@H](CC(N)=O)NC(=O)[C@@H](N)CC(C)C)CSSC[C@H](NC(=O)[C@H](CCCNC(=N)N)NC(=O)[C@H](Cc3ccc(O)cc3)NC(=O)CNC(=O)[C@H](CO)NC(=O)[C@@H]3CCCN3C2=O)C(=O)N[C@@H](CO)C(=O)N[C@@H]([C@@H](C)CC)C(=O)N[C@@H](C(C)C)C(=O)N[C@@H](CC(=O)O)C(=O)N[C@@H](CCCCN)C(=O)N[C@@H](CCC(N)=O)C(=O)N1)C(=O)N[C@@H](CCCCN)C(=O)N[C@@H](CCCCN)C(=O)N[C@@H](CCC(=O)O)C(=O)O` [RhTx] (H-LNNPCNGVTCPSGYRCSIVDKQCIKKE-OH; disulfide 5-16, 10-23; N-terminus and C-terminus assumed), which “core (colonic) temperature in knockout mice” value (Trpv1−/− mice) is on record?
Answer: Its value is “absent”.

Question: And the “activity when applied from the intracellular side” value (mTRPV1 [1])?
Answer: The value was “completely ineffective; also recorded: no activity”.

Question: And the “intracellular calcium increase in capsaicin-responsive DRG neurons” value [2]?
Answer: The value was “nearly as strong as capsaicin”.

Question: And the “effect of lowering the experimental temperature on agonist-induced channel activation” value (TRPV1)?
Answer: The value was “completely prohibited”.

Question: And the “agonist-induced intracellular calcium increase in point mutants versus WT channel” value [3]?
Answer: Its value is “markedly reduced”.

Question: And the “response of TRPV3” value (mTRPV3)?
Answer: The value was “no detectable effect; also recorded: no discernable response”.

Question: And the “pain behaviour (paw licking)” value (WT mice [4])?
Answer: Its value is “elicited similar pain behaviour”.

Question: And the “activation of human TRPV1” value (hTRPV1)?
Answer: The value was “strongly activated”.

Question: What about the “effect on voltage-gated Ca channels” value [5] of the same compound?
Answer: Its value is “no detectable effect; also recorded: no discernable response”.

Question: And the “activation of mouse TRPV1” value (mTRPV1 [6])?
Answer: Its value is “strongly activated”.

Question: What about the EC50 (mTRPV1 [6]; SEM) of the same compound?
Answer: The EC50 was 522 ± 162 nM.

Question: And the Hill slope (mTRPV1 [6]; whole-cell mTRPV1 currents, Hill fit, average±s.e.m., n=10, SEM)?
Answer: The Hill slope was 1.17±0.37.

Question: And the “effect on voltage-gated K channels” value (voltage-gated K channels)?
Answer: The value was “no detectable effect; also recorded: no discernable response”.

Question: What about the “core (colonic) temperature” value (WT mice [7]) of the same compound?
Answer: Its value is “rapid drop in core temperature”.

Source: article PMC4589873, “A pain-inducing centipede toxin targets the heat activation machinery of nociceptor TRPV1” (Nature Communications, 2015)
